In patent US7968570B2, “Isoindolone compounds and their use as metabotropic glutamate receptor potentiators” (AstraZeneca AB, priority 2004, dated 2011):

What follows are molecules tested against T1, human mGluR2 receptor (Homo sapiens, UniProt Q14416) (assay: [35S]-GTPγS binding assay of mGluR2 receptor activation). Details: not given.
T1 construct: expressed in transfected cells
Format: biochemical
Method: A [^35S]-GTPγS binding assay was used to functionally assay mGluR2 receptor activation. The allosteric activator activity of compounds at the human mGluR2 receptor were measured using a [^35S]-GTPγS binding assay with membranes prepared from CHO cells which stably express the human mGluR2. The assay is based upon the principle that agonists bind to G-protein coupled receptors to stimulate GDP-GTP exchange at the G-protein. Since [^35S]-GTPγS is a non-hydrolyzable GTP analog, it can be used to provide an index of GDP-GTP exchange and, thus, receptor activation. The GTPγS binding assay therefore provides a quantitative measure of receptor activation.
Membranes were prepared from CHO cells stably transfected with human mGluR2. Membranes (30 μg protein) were incubated with test compound (3 nM to 300 μM) for 15 minutes at room temperature prior to the addition of 1 μM glutamate, and incubated for 30 min at 30° C. in 500 μl assay buffer (20 mM HEPES, 100 mM NaCl, 10 mM MgCl2), containing 30 μM GDP and 0.1 nM [^35S]-GTPγS (1250 Ci/mmol). Reactions were carried out in triplicate in 2 ml polypropylene 96-well plates. Reactions were terminated by vacuum filtration using a Packard 96-well harvester and Unifilter-96, GF/B filter microplates. The filter plates were washed 4×1.5 ml with ice-cold wash buffer (10 mM sodium phosphate buffer, pH 7.4). The filter plates were dried and 35 μl of scintillation fluid (Microscint 20) was added to each well. The amount of radioactivity bound was determined by counting plates on the Packard TopCount. Data was analyzed using GraphPad Prism, and EC50 and Emax values (relative to the maximum glutamate effect) were calculated using non-linear regression.

T1 sequence (Q14416 19-872): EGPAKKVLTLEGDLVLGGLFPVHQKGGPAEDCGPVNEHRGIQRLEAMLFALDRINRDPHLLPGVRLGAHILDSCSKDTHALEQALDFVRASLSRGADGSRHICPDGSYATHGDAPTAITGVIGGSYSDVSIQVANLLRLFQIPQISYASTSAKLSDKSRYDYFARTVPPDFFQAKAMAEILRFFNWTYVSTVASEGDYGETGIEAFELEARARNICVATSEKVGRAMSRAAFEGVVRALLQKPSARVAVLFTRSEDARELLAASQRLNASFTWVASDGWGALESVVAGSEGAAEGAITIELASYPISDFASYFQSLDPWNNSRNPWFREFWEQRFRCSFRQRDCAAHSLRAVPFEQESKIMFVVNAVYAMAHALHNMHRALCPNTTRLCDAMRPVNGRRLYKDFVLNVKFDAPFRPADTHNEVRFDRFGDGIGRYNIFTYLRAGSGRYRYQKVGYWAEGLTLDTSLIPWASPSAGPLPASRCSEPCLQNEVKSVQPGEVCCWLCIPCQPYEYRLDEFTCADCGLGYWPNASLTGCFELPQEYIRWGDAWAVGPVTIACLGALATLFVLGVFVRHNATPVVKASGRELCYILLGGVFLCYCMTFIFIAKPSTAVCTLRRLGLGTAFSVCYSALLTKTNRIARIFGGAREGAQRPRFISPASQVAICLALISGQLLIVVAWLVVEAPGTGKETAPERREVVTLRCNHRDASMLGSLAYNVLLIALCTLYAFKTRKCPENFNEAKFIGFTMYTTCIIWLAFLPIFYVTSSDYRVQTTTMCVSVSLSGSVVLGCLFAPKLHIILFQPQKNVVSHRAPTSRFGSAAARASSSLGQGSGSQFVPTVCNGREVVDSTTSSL

SMILES	EC50
Cc1cc(-c2nnc(CN3CCOCC3)o2)cc2c1C(=O)N(Cc1ccc(OC(F)(F)F)cc1)C2 [Example 176, 7-Methyl-5-(5-morpholin-4-ylmethyl-[1,3,4]oxadiazol-2-yl)-2-(4-trifluorometh-oxy-benzyl)-2,3-dihydro-isoindol-1-one]	1290 nM
O=C1c2c(Cl)cc(CC3CCN(Cc4ccncc4)CC3)cc2CN1Cc1ccc(OC(F)(F)F)cc1 [Example 182]	40 nM
Cc1cc(CC2CCN(Cc3cccnc3)CC2)cc2c1C(=O)N(Cc1ccc(OC(F)(F)F)cc1)C2 [Example 169, 7-methyl-5-(1-pyridin-3-ylmethyl-piperidin-4-ylmethyl)-2-(4-trifluorometh-oxy-benzyl)-2,3-dihydro-isoindol-1-one]	140 nM
CCCN1CCC(Cc2cc(C)c3c(c2)CN(Cc2ccc(OC(F)(F)F)cc2)C3=O)CC1 [Example 172, 7-methyl-5-(1-propyl-piperidin-4-ylmethyl)-2-(4-trifluorometh-oxy-benzyl)-2,3-dihydro-isoindol-1-one]	1510 nM

Same assay, conditions: membranes from CHO cells stably expressing human mGluR2; 1 μM glutamate

SMILES	EC50
COc1cc(C2=CCN(C(=O)OC(C)(C)C)CC2)cc2c1C(=O)N(Cc1ccc(OC(F)(F)F)cc1)C2 [Example 85, 4-[7-Methoxy-1-oxo-2-(4-trifluoromethoxy-benzyl)-2,3-dihydro-1H-isoindol-5-yl]-3,6-dihydro-2H-pyridine-1-carboxylic acid tert-butyl ester]	80 nM
COc1cc(C2=CCNCC2)cc2c1C(=O)N(Cc1ccc(OC(F)(F)F)cc1)C2 [Example 92]	1360 nM
Cc1cc(N2CCN3CCCCC3C2)cc2c1C(=O)N(Cc1ccc(Cl)cc1)C2 (stereo not shown) [Example 121]	1230 nM
Cc1cc(-c2ccc(CN(C)C)cc2)cc2c1C(=O)N(Cc1ccc(OC(F)(F)F)cc1)C2 [Example 86, 5-(4-Dimethylamino-methyl-phenyl)-7-methyl-2-(4-trifluoromethoxy-benzyl)-2,3-dihydro-isoindol-1-one]	60 nM
COCCN1CCN(c2cc(Cl)c3c(c2)CN(Cc2ccc(OC(F)(F)F)cc2)C3=O)CC1 [Example 154, 7-Chloro-5-[4-(2-methoxy-ethyl)-piperazin-1-yl]-2-(4-trifluoromethoxy-benzyl)-2,3-dihydro-isoindol-1-one]	210 nM
Cc1cc(N2CCN(C)CC2)cc2c1C(=O)N(Cc1ccc(Oc3ccccc3)cc1)C2 [Example 114, 7-Methyl-5-(4-methylpiperazin-1-yl)-2-(4-phenoxybenzyl)-2,3-dihydroisoindol-1-one]	280 nM
Cc1cc(-c2cccnc2)cc2c1C(=O)N(Cc1ccc(Oc3ccccc3)cc1)C2 [Example 104, 7-Methyl-2-(4-phenoxy-benzyl)-5-pyridin-3-yl-2,3-dihydro-isoindol-1-one]	50 nM
O=C1c2c(Cl)cc(N3CCN4CCCC4C3)cc2CN1Cc1ccc(Cl)cc1 (stereo not shown) [Example 134, 7-Chloro-2-(4-chloro-benzyl)-5-(hexahydro-pyrrolo[1,2-a]pyrazin-2-yl)-2,3-dihydro-isoindol-1-one]	610 nM
O=C(CN1CCN(c2ccc3c(c2)CN(Cc2ccc(OC(F)(F)F)cc2)C3=O)CC1)N1CCCC1 [Example 148, 5-[4-(2-Oxo-2-pyrrolidin-1-yl-ethyl)-piperazin-1-yl]-2-(4-trifluoromethoxy-benzyl)-2,3-dihydro-isoindol-1-one]	6780 nM
CN1CCN(c2cc(Cl)c3c(c2)CN(Cc2ccc(OC(F)(F)F)cc2)C3=O)CC1 [Example 131, 7-Chloro-5-(4-methyl-piperizin-1-yl)-2-(4-trifluoromethoxy-benzyl)-2,3-dihydro-isoindol-1-one]	610 nM
Cc1cc(N2CCN(C)CC2)cc2c1C(=O)N(Cc1ccc(Cl)cc1)C2 [Example 117, 2-(4-chlorobenzyl)-7-methyl-5-(4-methylpiperazin-1-yl)-2,3-di-hydroisoindol-1-one]	1450 nM
Cc1cc(Br)cc2c1C(=O)N(Cc1ccc(OC(F)(F)F)cc1)C2 [Example 30, 5-Bromo-7-methyl-2-(4-trifluoromethoxy-benzyl)-2,3-dihydro-isoindol-1-one]	370 nM
Cc1ccc(CN2Cc3cc(C4=CCN(C)CC4)ccc3C2=O)cc1 [Example 89]	9720 nM
Cc1cc(CN2CCC(n3c(=O)[nH]c4ccccc43)CC2)cc2c1C(=O)N(Cc1ccc(OC(F)(F)F)cc1)C2 [Example 56, 1-{1-[7-Methyl-1-oxo-2-(4-trifluoromethoxy-benzyl)-2,3-dihydro-1H-isoindol-5-ylmethyl]-piperidin-4-yl}-1,3-dihydro-benzoimidazol-2-one]	60 nM
O=C1c2c(Cl)cc(N3CCN4CCCC4C3)cc2CN1Cc1ccc(OC(F)(F)F)cc1 (stereo not shown) [Example 132, 7-Chloro-5-(hexahydro-pyrrolo[1,2-a]pyrazin-2-yl)-2-(4-trifluoromethoxy-benzyl)-2,3-dihydro-isoindol-1-one]	480 nM
Cc1cc(C(=O)N2CCN(Cc3ccccc3)CC2)cc2c1C(=O)N(Cc1ccc(OC(F)(F)F)cc1)C2 [Example 161, 5-(4-Benzyl-piperazine-1-carbonyl)-7-methyl-2-(4-trifluoromethoxy-benzyl)-2,3-dihydro-isoindol-1-one]	630 nM
Cc1cc(N2CCCN(C)CC2)cc2c1C(=O)N(Cc1ccc(OC(F)(F)F)cc1)C2 [Example 113, 7-Methyl-5-(4-methyl-[1,4]-diazepan-1-yl)-2-(4-trifluoromethoxy-benzyl)-2,3-dihydroisoindol-1-one]	1210 nM
Cc1ccc(CN2Cc3cc(NC4CCN(C(=O)OC(C)(C)C)C4)ccc3C2=O)cc1 (stereo not shown) [Example 110, 3-[2-(4-Methyl-benzyl)-1-oxo-2,3-dihydro-1H-isoindol-5-ylamino]-pyrrolidine-1-carboxylic acid tert-butyl ester]	2520 nM
COc1cc(-c2cccnc2)cc2c1C(=O)N(Cc1ccc(OC(F)(F)F)cc1)C2 [Example 100, 7-Methoxy-5-pyridin-3-yl-2-(4-trifluoromethoxy-benzyl)-2,3-dihydroisoindol-1-one]	220 nM
Cc1cc(OCc2ccccn2)cc2c1C(=O)N(Cc1ccc(OC(F)(F)F)cc1)C2 [Example 82, 7-Methyl-5-(pyridine-2-ylmethoxy)-2-(4-trifluoromethoxy-benzyl)-2,3-dihydro-isoindol-1-one]	100 nM
O=C1c2ccc(N3CCN(c4ccncc4)CC3)cc2CN1Cc1ccc(OC(F)(F)F)cc1 [Example 149, 5-(4-Pyridin-4-yl-piperazin-1-yl)-2-(4-trifluoromethoxy-benzyl)-2,3-dihydro isoindol-1-one]	9830 nM
Cc1cc(CN(C)Cc2ccccc2)cc2c1C(=O)N(Cc1ccc(OC(F)(F)F)cc1)C2 [compound 35, 5-[(Benzylmethylamino)-methyl]-7-methyl-2-(4-trifluoromethoxy-benzyl)-2,3-dihydro-isoindol-1-one]	70 nM
COc1cc(-c2ccncc2)cc2c1C(=O)N(Cc1ccc(OC(F)(F)F)cc1)C2 [Example 99, 7-Methoxy-5-pyridin-4-yl-2-(4-trifluoromethoxy-benzyl)-2,3-dihydroisoindol-1-one]	400 nM
Cc1cc(C(=O)N2CCN(CCc3ccncc3)CC2)cc2c1C(=O)N(Cc1ccc(OC(F)(F)F)cc1)C2 [Example 163, 7-Methyl-5-[4-(2-pyridin-4-yl-ethyl)piperazine-1-carbonyl]-2-(4-trifluoromethoxy-benzyl)-2,3-dihydro-isoindol-1-one]	1210 nM
